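Five concentrations, 48 hours, 96-well plates. Abbreviation: GI50, concentration required for 50% inhibition of growth.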 Activity calls are given as the source filed them. No stated cut-off is given here; in the data, active = GI50 up to about 1.1 µM and inactive = higher.
Experiments:
Test in all cases: NCI tumour cell line growth inhibition, 48 h
[1] = test system: 786-0
[2] = test system: A498
[3] = test system: A549
[4] = test system: ACHN
[5] = test system: BT-549
[6] = test system: CAKI-1
[7] = test system: CCRF-CEM
[8] = test system: COLO 205
[9] = test system: DU-145
[10] = test system: EKVX
[11] = test system: HCC 2998
[12] = test system: HCT-116
[13] = test system: HCT-15
[14] = test system: HOP-92
[15] = test system: HT-29
[16] = test system: IGROV-1
[17] = test system: K562
[18] = test system: KM12
[19] = test system: LOX IMVI
[20] = test system: M14
[21] = test system: MCF7
[22] = test system: MDA-MB-231
[23] = test system: MDA-MB-435
[24] = test system: MDA-N
[25] = test system: MOLT-4
[26] = test system: NCI-H226
[27] = test system: NCI-H23
[28] = test system: NCI-H460
[29] = test system: NCI/ADR-RES
[30] = test system: OVCAR-3
[31] = test system: OVCAR-4
[32] = test system: OVCAR-5
[33] = test system: OVCAR-8
[34] = test system: PC-3
[35] = test system: RPMI-8226
[36] = test system: RXF 393
[37] = test system: SF-295
[38] = test system: SF-539
[39] = test system: SK-MEL-28
[40] = test system: SK-MEL-2
[41] = test system: SK-MEL-5
[42] = test system: SK-OV-3
[43] = test system: SN12C
[44] = test system: SNB-19
[45] = test system: SNB-75
[46] = test system: SR
[47] = test system: SW-620
[48] = test system: T47D
[49] = test system: TK-10
[50] = test system: U-251
[51] = test system: UACC-257
[52] = test system: UACC-62
[53] = test system: UO-31
[54] = test system: HL-60
[55] = test system: HOP-62
[56] = test system: Hs-578T
[57] = test system: NCI-H522
[58] = test system: SF-268

**Q.** How did the GI50 [1] turn out when `COC(=O)C1=C(O)CCCC(C2CCCCC(=O)C2C(=O)OC)=C1` (configuration not stated) was run?
**A.** 37.8 µM (inactive)

**Q.** And the GI50 [2]?
**A.** 18.4 µM (inactive)

**Q.** What about the GI50 [3] of the same compound?
**A.** 44.3 µM (inactive)

**Q.** What about the GI50 [4] of the same compound?
**A.** 37.2 µM (inactive)

**Q.** And the GI50 [5]?
**A.** 78.9 µM (inactive)

**Q.** And the GI50 [6]?
**A.** 31.1 µM (inactive)

**Q.** And the GI50 [7]?
**A.** 20.8 µM (inactive)

**Q.** And the GI50 [8]?
**A.** 83.4 µM (inactive)

**Q.** And the GI50 [9]?
**A.** 29.9 µM (inactive)

**Q.** And the GI50 [10]?
**A.** 67.3 µM (inactive)

**Q.** What about the GI50 [11] of the same compound?
**A.** 33.5 µM (inactive)

**Q.** What about the GI50 [12] of the same compound?
**A.** 36.1 µM (inactive)

**Q.** And the GI50 [13]?
**A.** 87.5 µM

**Q.** What about the GI50 [14] of the same compound?
**A.** 28.5 µM (inactive)

**Q.** What about the GI50 [15] of the same compound?
**A.** > 100 µM (inactive)

**Q.** And the GI50 [16]?
**A.** 36.8 µM (inactive)

**Q.** What about the GI50 [17] of the same compound?
**A.** 64.3 µM (inactive)

**Q.** What about the GI50 [18] of the same compound?
**A.** 94.6 µM (inactive)

**Q.** And the GI50 [19]?
**A.** 25.6 µM (inactive)

**Q.** And the GI50 [20]?
**A.** > 100 µM (inactive)

**Q.** What about the GI50 [21] of the same compound?
**A.** 22.6 µM (inactive)

**Q.** What about the GI50 [22] of the same compound?
**A.** 46.5 µM (inactive)

**Q.** And the GI50 [23]?
**A.** > 100 µM (inactive)

**Q.** And the GI50 [24]?
**A.** > 100 µM (inactive)

**Q.** What about the GI50 [25] of the same compound?
**A.** 31.3 µM (inactive)

**Q.** What about the GI50 [26] of the same compound?
**A.** 27.9 µM (inactive)

**Q.** What about the GI50 [27] of the same compound?
**A.** 70.3 µM (inactive)

**Q.** And the GI50 [28]?
**A.** 13.9 µM (inactive)

**Q.** What about the GI50 [29] of the same compound?
**A.** > 100 µM (inactive)

**Q.** What about the GI50 [30] of the same compound?
**A.** > 100 µM (inactive)

**Q.** What about the GI50 [31] of the same compound?
**A.** > 100 µM (inactive)

**Q.** And the GI50 [32]?
**A.** > 100 µM (inactive)

**Q.** And the GI50 [33]?
**A.** 45.5 µM (inactive)

**Q.** And the GI50 [34]?
**A.** 63.4 µM (inactive)

**Q.** And the GI50 [35]?
**A.** 56.1 µM (inactive)

**Q.** What about the GI50 [36] of the same compound?
**A.** 90.2 µM (inactive)

**Q.** What about the GI50 [37] of the same compound?
**A.** 48 µM (inactive)

**Q.** And the GI50 [38]?
**A.** 24.5 µM (inactive)

**Q.** And the GI50 [39]?
**A.** > 100 µM (inactive)

**Q.** What about the GI50 [40] of the same compound?
**A.** > 100 µM (inactive)

**Q.** What about the GI50 [41] of the same compound?
**A.** 62.4 µM (inactive)

**Q.** And the GI50 [42]?
**A.** 76.7 µM (inactive)

**Q.** What about the GI50 [43] of the same compound?
**A.** 38.2 µM (inactive)

**Q.** And the GI50 [44]?
**A.** 42.1 µM (inactive)

**Q.** What about the GI50 [45] of the same compound?
**A.** 28.7 µM (inactive)

**Q.** And the GI50 [46]?
**A.** 24.7 µM (inactive)

**Q.** What about the GI50 [47] of the same compound?
**A.** 81.8 µM (inactive)

**Q.** And the GI50 [48]?
**A.** 39.4 µM (inactive)

**Q.** And the GI50 [49]?
**A.** > 100 µM (inactive)

**Q.** What about the GI50 [50] of the same compound?
**A.** 29 µM (inactive)

**Q.** What about the GI50 [51] of the same compound?
**A.** 52.1 µM (inactive)

**Q.** What about the GI50 [52] of the same compound?
**A.** 19.4 µM (inactive)

**Q.** And the GI50 [53]?
**A.** > 100 µM (inactive)

**Q.** `CCOP(=O)(/C=C/n1cnc2c(=O)n(C(C)=O)c(N)nc21)OCC` was tested. Which GI50 [1] did it give?
**A.** > 100 µM (inactive)

**Q.** And the GI50 [2]?
**A.** > 100 µM (inactive)

**Q.** And the GI50 [3]?
**A.** > 100 µM (inactive)

**Q.** What about the GI50 [4] of the same compound?
**A.** > 100 µM (inactive)

**Q.** What about the GI50 [5] of the same compound?
**A.** > 100 µM (inactive)

**Q.** What about the GI50 [6] of the same compound?
**A.** > 100 µM (inactive)

**Q.** What about the GI50 [7] of the same compound?
**A.** > 100 µM (inactive)

**Q.** What about the GI50 [8] of the same compound?
**A.** > 100 µM (inactive)

**Q.** What about the GI50 [9] of the same compound?
**A.** > 100 µM (inactive)

**Q.** And the GI50 [10]?
**A.** > 100 µM (inactive)

**Q.** And the GI50 [12]?
**A.** > 100 µM (inactive)

**Q.** And the GI50 [13]?
**A.** > 100 µM

**Q.** And the GI50 [54]?
**A.** > 100 µM (inactive)

**Q.** What about the GI50 [55] of the same compound?
**A.** > 100 µM (inactive)

**Q.** And the GI50 [15]?
**A.** > 100 µM (inactive)

**Q.** And the GI50 [56]?
**A.** > 100 µM (inactive)

**Q.** And the GI50 [16]?
**A.** > 100 µM (inactive)

**Q.** What about the GI50 [17] of the same compound?
**A.** > 100 µM (inactive)

**Q.** What about the GI50 [18] of the same compound?
**A.** > 100 µM (inactive)

**Q.** What about the GI50 [19] of the same compound?
**A.** > 100 µM (inactive)

**Q.** And the GI50 [20]?
**A.** > 100 µM (inactive)

**Q.** And the GI50 [21]?
**A.** > 100 µM (inactive)

**Q.** And the GI50 [22]?
**A.** > 100 µM (inactive)

**Q.** And the GI50 [23]?
**A.** > 100 µM (inactive)

**Q.** And the GI50 [24]?
**A.** > 100 µM (inactive)

**Q.** And the GI50 [25]?
**A.** > 100 µM (inactive)

**Q.** What about the GI50 [26] of the same compound?
**A.** 70.3 µM (inactive)

**Q.** What about the GI50 [27] of the same compound?
**A.** > 100 µM (inactive)

**Q.** What about the GI50 [28] of the same compound?
**A.** > 100 µM (inactive)

**Q.** What about the GI50 [57] of the same compound?
**A.** 67.9 µM (inactive)

**Q.** And the GI50 [29]?
**A.** > 100 µM (inactive)

**Q.** What about the GI50 [30] of the same compound?
**A.** > 100 µM (inactive)

**Q.** And the GI50 [31]?
**A.** > 100 µM (inactive)

**Q.** What about the GI50 [32] of the same compound?
**A.** > 100 µM (inactive)

**Q.** What about the GI50 [33] of the same compound?
**A.** > 100 µM (inactive)

**Q.** And the GI50 [34]?
**A.** > 100 µM (inactive)

**Q.** What about the GI50 [35] of the same compound?
**A.** > 100 µM (inactive)

**Q.** What about the GI50 [36] of the same compound?
**A.** > 100 µM (inactive)

**Q.** What about the GI50 [58] of the same compound?
**A.** > 100 µM (inactive)

**Q.** What about the GI50 [37] of the same compound?
**A.** > 100 µM (inactive)

**Q.** And the GI50 [38]?
**A.** > 100 µM (inactive)

**Q.** And the GI50 [39]?
**A.** > 100 µM (inactive)

**Q.** What about the GI50 [40] of the same compound?
**A.** > 100 µM (inactive)

**Q.** And the GI50 [41]?
**A.** > 100 µM (inactive)

**Q.** What about the GI50 [42] of the same compound?
**A.** > 100 µM (inactive)

**Q.** What about the GI50 [43] of the same compound?
**A.** > 100 µM (inactive)

**Q.** And the GI50 [44]?
**A.** > 100 µM (inactive)

**Q.** What about the GI50 [45] of the same compound?
**A.** > 100 µM (inactive)

**Q.** What about the GI50 [47] of the same compound?
**A.** > 100 µM (inactive)

**Q.** What about the GI50 [48] of the same compound?
**A.** > 100 µM (inactive)

**Q.** And the GI50 [49]?
**A.** > 100 µM (inactive)

**Q.** And the GI50 [50]?
**A.** > 100 µM (inactive)

**Q.** What about the GI50 [51] of the same compound?
**A.** > 100 µM (inactive)

**Q.** And the GI50 [52]?
**A.** > 100 µM (inactive)

Source: ChEMBL document CHEMBL1201862, “PubChem BioAssay data set” (2004)
